Data: patent publication US7745495B2, “Pyridine ketones with herbicidal effect” (Syngenta Crop Protection, Inc., priority 2004, dated 2010)

Experiments:
[1] = system: Chenopodium; assay: Pre-emergence herbicidal action; type: in vivo; settings: 250 g/ha; after 3 weeks; rating 10=total damage, 0=no action
Method: (§1) Monocotyledonous and dicotyledonous test plants are sown in standard soil in plastic pots. Immediately after sowing, the test compounds, in the form of an aqueous suspension (prepared from a 25% wettable powder (Example F3, b) according to WO 97/34485) or in the form of an emulsion (prepared from a 25% emulsifiable concentrate (Example F1, c)), are applied by spraying a concentration corresponding to 125 g or 250 g of active ingredient/ha (500 liter of water/ha). The test plants are then grown in a greenhouse under optimum conditions. After a test duration of 3 weeks, the test is evaluated in accordance with a scale of ten ratings (10=total damage, 0=no action). Ratings of from 10 to 7 (especially from 10 to 8) indicate good to very good herbicidal action.

[2] = system: Stellaria; assay: Pre-emergence herbicidal action; type: in vivo; settings: 250 g/ha; after 3 weeks; rating 10=total damage, 0=no action
Method: as §1

[3] = system: Xanthium; assay: Pre-emergent herbicidal activity; type: in vivo; settings: Table B4, rating 10=total damage, 0=no action
Method: (§2) Monocotyledonous and dicotyledonous test plants are sown in standard soil in plastic pots. […] The test plants are then grown in a greenhouse under optimum conditions. After a test duration of 3 weeks, the test is evaluated in accordance with a scale of ten ratings (10=total damage, 0=no action). Ratings of from 10 to 7 (especially from 10 to 8) indicate good to very good herbicidal action.
In the following Table B4, the pre-emergent herbicidal activity of compound H-3 according to the invention is compared with compound D according to the prior art. Both compounds are structurally identical except for the length of the alkylene linker attached to the pyridine ring.

[4] = system: Digitaria; assay: Pre-emergence herbicidal action; type: in vivo; settings: rating 10=total damage, 0=no action; for Pre-emergence herbicidal action: Digitaria: 250 g/ha, after 3 weeks
Method: as §2

[5] = system: Panicum; assay: Pre-emergence herbicidal action; type: in vivo; settings: rating 10=total damage, 0=no action; for Pre-emergence herbicidal action: Panicum: 250 g/ha, after 3 weeks; for Pre-emergent Herbicidal Activity: Panicum: Table B4
Method: as §2

[6] = system: Amaranthus; assay: Pre-emergence herbicidal action; type: in vivo; settings: rating 10=total damage, 0=no action; for Pre-emergence herbicidal action: Amaranthus: 250 g/ha, after 3 weeks
Method: as §2

[7] = system: Echinochloa; assay: Pre-emergence herbicidal action; type: in vivo; settings: rating 10=total damage, 0=no action; for Pre-emergence herbicidal action: Echinochloa: 250 g/ha, after 3 weeks
Method: as §2

[8] = system: Abutilon; assay: Pre-emergence herbicidal action; type: in vivo; settings: rating 10=total damage, 0=no action; for Pre-emergence herbicidal action: Abutilon: 250 g/ha, after 3 weeks
Method: as §2

[9] = system: Digitaria; assay: Post-emergence herbicidal action; type: in vivo; settings: 250 g/ha; 4- to 6-leaf stage; after about 18 days; rating 10=total damage, 0=no action
Method: (§3) In a greenhouse, monocotyledonous and dicotyledonous test plants are grown in standard soil in plastic pots and at the 4- to 6-leaf stage are sprayed with an aqueous suspension of the test compounds of formula I prepared from a 25% wettable powder (Example F3, b) according to WO 97/34485) or with an emulsion of the test compounds of formula I prepared from a 25% emulsifiable concentrate (Example F1, c) according to WO 97/34485), in a concentration corresponding to 125 g or 250 g of active ingredient/ha (500 liter of water/ha). The test plants are then grown on in a greenhouse under optimum conditions. After a test duration of about 18 days, the test is evaluated in accordance with a scale of ten ratings (10=total damage, 0=no action). Ratings of from 10 to 7 (especially from 10 to 8) indicate good to very good herbicidal action.

[10] = system: Panicum; assay: Post-emergence herbicidal action; type: in vivo; settings: 250 g/ha; 4- to 6-leaf stage; after about 18 days; rating 10=total damage, 0=no action
Method: as §3

[11] = system: Ipomea; assay: Post-emergence herbicidal action; type: in vivo; settings: 250 g/ha; 4- to 6-leaf stage; after about 18 days; rating 10=total damage, 0=no action
Method: as §3

[12] = system: Setaria; assay: Post-emergence herbicidal action; type: in vivo; settings: 250 g/ha; 4- to 6-leaf stage; after about 18 days; rating 10=total damage, 0=no action
Method: as §3

[13] = system: Sinapis; assay: Post-emergence herbicidal action; type: in vivo; settings: 250 g/ha; 4- to 6-leaf stage; after about 18 days; rating 10=total damage, 0=no action
Method: as §3

[14] = system: Chenopodium; assay: Post-emergence herbicidal action; type: in vivo; settings: 250 g/ha; 4- to 6-leaf stage; after about 18 days; rating 10=total damage, 0=no action
Method: as §3

[15] = system: Abutilon; assay: Post-emergence herbicidal action; type: in vivo; settings: 250 g/ha; 4- to 6-leaf stage; after about 18 days; rating 10=total damage, 0=no action
Method: as §3

[16] = system: Stellaria; assay: Post-emergence herbicidal action; type: in vivo; settings: 250 g/ha; 4- to 6-leaf stage; after about 18 days; rating 10=total damage, 0=no action
Method: as §3

[17] = system: Soya; assay: Pre-emergent herbicidal activity on crop plant; type: in vivo; settings: crop plant, rating 10=total damage, 0=no action; for Pre-emergent Herbicidal Activity: Soya: Table B4; for Pre-emergent Herbicidal Activity: Soja: Table B5
Method: as §2
(§4) In the following Table B3, the pre-emergent herbicidal activity of compound H-14 according to the invention is compared with 4 compounds according to the prior art. All compounds are structurally identical except for the nature of the alkylene linker attached to the pyridine ring.

[18] = system: Corn; assay: Pre-emergent herbicidal activity on crop plant; type: in vivo; settings: crop plant, rating 10=total damage, 0=no action; for Pre-emergent Herbicidal Activity: Corn: Table B4; for Pre-emergent Herbicidal Activity: Mais: Table B5
Method: as §2, §4

[19] = system: Scirpus; assay: Pre-emergent herbicidal activity; type: in vivo; settings: Table B5, rating 10=total damage, 0=no action
Method: as §2
In the following Table B5, the pre-emergent herbicidal activity of compound H-9 according to the invention is compared with compound E according to the prior art. Both compounds are structurally identical except for the length of the alkylene linker attached to the pyridine ring.

[20] = system: Brachiaria; assay: Pre-emergent herbicidal activity; type: in vivo; settings: Table B5, rating 10=total damage, 0=no action
Method: as §2, §4

For `COCCCc1nc(C(F)F)ccc1C(=O)C1C(=O)C2CCC(C2)C1=O` (stereo not drawn) [Compound H-3, 3-[6-Difluoromethyl-2-(3-methoxy-propyl)-pyridine-3-carbonyl]-bicyclo[3.2.1]octane-2,4-dione], the “Pre-emergence herbicidal action: Chenopodium” value [1] was 10, the “Pre-emergence herbicidal action: Stellaria” value [2] was 8 and the “Pre-emergent Herbicidal Activity: Xanthium” value ([3]; 30 g/ha) was 7. For the same molecule, the “Pre-emergent Herbicidal Activity: Xanthium” value ([3]; 60 g/ha) was 7, the “Pre-emergence herbicidal action: Digitaria” value [4] was 10 and the “Pre-emergent Herbicidal Activity: Digitaria” value ([4]; Table B4, 30 g/ha) was 9. The “Pre-emergent Herbicidal Activity: Digitaria” value ([4]; Table B4, 60 g/ha) was 9, the “Pre-emergence herbicidal action: Panicum” value [5] was 10 and the “Pre-emergent Herbicidal Activity: Panicum” value ([5]; 30 g/ha) was 10. For the same molecule, the “Pre-emergent Herbicidal Activity: Panicum” value ([5]; 60 g/ha) was 10, the “Pre-emergence herbicidal action: Amaranthus” value [6] was 10 and the “Pre-emergent Herbicidal Activity: Amaranthus” value ([6]; Table B4, 30 g/ha) was 9. The “Pre-emergent Herbicidal Activity: Amaranthus” value ([6]; Table B4, 60 g/ha) was 10, the “Pre-emergence herbicidal action: Echinochloa” value [7] was 10 and the “Pre-emergent Herbicidal Activity: Echinochloa” value ([7]; Table B4, 30 g/ha) was 10. For the same molecule, the “Pre-emergent Herbicidal Activity: Echinochloa” value ([7]; Table B4, 60 g/ha) was 10, the “Pre-emergence herbicidal action: Abutilon” value [8] was 10 and the “Pre-emergent Herbicidal Activity: Abutilon” value ([8]; Table B4, 30 g/ha) was 9. For the same molecule, the “Pre-emergent Herbicidal Activity: Abutilon” value ([8]; Table B4, 60 g/ha) was 10, the “Post-emergence herbicidal action: Digitaria” value [9] was 9 and the “Post-emergence herbicidal action: Panicum” value [10] was 10. For the same molecule, the “Post-emergence herbicidal action: Ipomea” value [11] was 8, the “Post-emergence herbicidal action: Setaria” value [12] was 9 and the “Post-emergence herbicidal action: Sinapis” value [13] was 9. For the same molecule, the “Post-emergence herbicidal action: Chenopodium” value [14] was 10, the “Post-emergence herbicidal action: Abutilon” value [15] was 9 and the “Post-emergence herbicidal action: Stellaria” value [16] was 9. For the same molecule, the melting point was 45 to 46 °C, the “Pre-emergent Herbicidal Activity: Soya” value ([17]; 30 g/ha) was 0 and the “Pre-emergent Herbicidal Activity: Soya” value ([17]; 60 g/ha) was 0. For the same molecule, the “Pre-emergent Herbicidal Activity: Corn” value ([18]; 30 g/ha) was 0 and the “Pre-emergent Herbicidal Activity: Corn” value ([18]; 60 g/ha) was 0.

For `COCCCc1nc(C(F)(F)Cl)ccc1C(=O)C1C(=O)C2CCC(C2)C1=O` (stereo not drawn) [Compound H-9], the “Pre-emergence herbicidal action: Chenopodium” value [1] was 9, the “Pre-emergence herbicidal action: Stellaria” value [2] was 7 and the “Pre-emergence herbicidal action: Digitaria” value [4] was 10. For the same molecule, the “Pre-emergent Herbicidal Activity: Digitaria” value ([4]; Table B5, 30 g/ha) was 8, the “Pre-emergent Herbicidal Activity: Digitaria” value ([4]; Table B5, 60 g/ha) was 9 and the “Pre-emergence herbicidal action: Panicum” value [5] was 10. For the same molecule, the “Pre-emergence herbicidal action: Amaranthus” value [6] was 9, the “Pre-emergent Herbicidal Activity: Amaranthus” value ([6]; Table B5, 30 g/ha) was 8 and the “Pre-emergent Herbicidal Activity: Amaranthus” value ([6]; Table B5, 60 g/ha) was 8. For the same molecule, the “Pre-emergence herbicidal action: Echinochloa” value [7] was 10, the “Pre-emergent Herbicidal Activity: Echinochloa” value ([7]; Table B5, 30 g/ha) was 9 and the “Pre-emergent Herbicidal Activity: Echinochloa” value ([7]; Table B5, 60 g/ha) was 10. The “Pre-emergence herbicidal action: Abutilon” value [8] was 10, the “Pre-emergent Herbicidal Activity: Abutilon” value ([8]; Table B5, 30 g/ha) was 8 and the “Pre-emergent Herbicidal Activity: Abutilon” value ([8]; Table B5, 60 g/ha) was 9. For the same molecule, the “Pre-emergent Herbicidal Activity: Scirpus” value ([19]; 30 g/ha) was 10, the “Pre-emergent Herbicidal Activity: Scirpus” value ([19]; 60 g/ha) was 10 and the “Post-emergence herbicidal action: Digitaria” value [9] was 9. For the same molecule, the “Post-emergence herbicidal action: Panicum” value [10] was 9, the “Post-emergence herbicidal action: Ipomea” value [11] was 9 and the “Post-emergence herbicidal action: Setaria” value [12] was 9. The “Post-emergence herbicidal action: Sinapis” value [13] was 7, the “Post-emergence herbicidal action: Chenopodium” value [14] was 9 and the “Post-emergence herbicidal action: Abutilon” value [15] was 9. For the same molecule, the “Post-emergence herbicidal action: Stellaria” value [16] was 8, the “Pre-emergent Herbicidal Activity: Soja” value ([17]; 30 g/ha) was 0 and the “Pre-emergent Herbicidal Activity: Soja” value ([17]; 60 g/ha) was 1. For the same molecule, the “Pre-emergent Herbicidal Activity: Mais” value ([18]; 30 g/ha) was 0, the “Pre-emergent Herbicidal Activity: Mais” value ([18]; 60 g/ha) was 1 and the “Pre-emergent Herbicidal Activity: Brachiaria” value ([20]; 30 g/ha) was 9. The “Pre-emergent Herbicidal Activity: Brachiaria” value ([20]; 60 g/ha) was 9.
